These results are taken from patent publication US20220227813A1, “Ras INHIBITORY PEPTIDE” (ICHIMARU PHARCOS CO., LTD., priority 2019, published 2022).

Positions of bridges follow the written chain, without caps; N, C: chain ends. Non-standard residues stand in square brackets, D forms with d. Phe(4-F) = N[C@@H](Cc1ccc(F)cc1)C(=O)O; Aoc(2) = CCCCCC[C@H](N)C(=O)O; NMeV = CN[C@H](C(=O)O)C(C)C; Nle = CCCC[C@H](N)C(=O)O; βAla = NCCC(=O)O

Data set [1] in a line: resistance to protease degradation in rat plasma (RP-HPLC). The data set is classed as in vitro ADME. Particulars: 37° C., 24 hours compared to 0 hours. On the procedure: For 1 μL of each 10 mM peptide, 20 μL of rat plasma was added and incubated at 37° C. for an arbitrary time (0 or 24 hours). […] To remove plasma proteins, the mixture was centrifuged at a speed of 15,000 rpm under 4° C. for 10 min. The supernatant was collected and the remaining amount of peptide was detected by RP-HPLC (solution A: 0.1% TFA/water, solution B: 0.1% TFA/acetonitrile, 20 min gradient of 80% solution A→10% solution A at 1 mL/min) using a SunFire C18 column (5 μm, 4.6×^150 mm).

A further data set has as its target H-Ras (G12V) (Homo sapiens, UniProt P01112, G12V). The experiment in a line: peptide concentration-dependent binding of biotin-modified peptide (ELISA). From the text:
(§1) The ELISA method is briefly described below.
Background: In an ELISA, binding on a coated surface is turned into a signal by an enzyme label.

In a further data set the target is K-Ras(G12C) (Homo sapiens, UniProt P01116, G12C). The data set is described as above.
Excerpt: as §1

In a further data set the target is H-Ras (Q61L) (Homo sapiens, UniProt P01112, Q61L). The description is as above.
Excerpt: as §1

The next data set has as its target wild-type K-Ras (Homo sapiens, UniProt P01116). The data set is described as above.
Excerpt: as §1

The target of the next data set is K-Ras(G12V) (Homo sapiens, UniProt P01116, G12V). The description is as above.
Excerpt: as §1

For a further data set, the target named is K-Ras(G13D) (Homo sapiens, UniProt P01116, G13D). The description is as above.
Excerpt: as §1

A further data set has as its target wild-type N-Ras (Homo sapiens, UniProt P01111). The description is as above.
Excerpt: as §1

For another data set, the target named is wild-type H-Ras (Homo sapiens, UniProt P01112). The description is as above.
Excerpt: as §1

For another data set, the target named is N-Ras (Q61K) (Homo sapiens, UniProt P01111, Q61K). Described as above.
Excerpt: as §1

Data set [2] concerns the target K-Ras(G12D) (Homo sapiens, UniProt P01116, G12D). The data set is described as above.
In data set [3] the target is T1, K-Ras(G12D) (UniProt P01116-2 1-188, limits assumed).
T1 construct: Bought recombinant protein coated on ELISA plates in buffer with 10 mM MgCl2 and 10 uM GDP; also called recombinant protein of Ras
Kind of data set: competitive ELISA, K-Ras(G12D) coated, competitor Biotin-KRpep-2d 100 nM; IC50 relative to KRpep-2d = 1; N=4.

Setting [4] is: bond between positions 4 and 11 cleaved, monocyclic.

“Biotin-Arg-Arg-Arg-Arg-c(Cys-Pro-Leu-Tyr-Ile-Ser-Tyr-Asp-Pro-Val-Cys)-Arg-Arg-Arg-Arg-NH2 [Biotin-KRpep-2d, reference compound]”: in the data set with negative control protein, the “binding activity to negative control protein” value is given as “did not show binding activity”.

With “c[βAla-Pro-Nle-c(Cys-Aoc-Ser-4fF-Asp-Pro-^mVal-^DCys)] (cyclo([βAla]P[Nle]C[Aoc(2)]S[Phe(4-F)]DP[NMeV][dC]); linker 4-11 via 1,2‑diiodoethane) [Seq-20]”, the “peptide-derived RP-HPLC peak remaining after incubation in rat plasma” value in [1] is “remained almost the same”.

Turning to “c[βAla-Pro-Nle-c(^DCys-Aoc-Ser-^m4fF-Asp-Lys(εNH-Biotin)-^mVal-^DCys)] [Biotin-BC-1]”, the “binding activity to negative control protein” value with negative control protein is recorded as “no binding activity”. The peptide concentration-dependent binding entry at H-Ras (G12V), on K-Ras(G12C), on H-Ras (Q61L), at wild-type K-Ras, at K-Ras(G12V) and at K-Ras(G13D) was “concentration-dependent binding” throughout. Besides, the peptide concentration-dependent binding entry at wild-type N-Ras was “concentration-dependent binding”; on wild-type H-Ras, “concentration-dependent binding”; on N-Ras (Q61K) it was “concentration-dependent binding”; at K-Ras(G12D) [2] (K-Ras(G12D) coated plate, SA-HRP detection), “concentration-dependent binding”. Further, the “binding activity under the reducing condition” value at H-Ras (G12V) (setting [4]), at K-Ras(G12C) (setting [4]), on H-Ras (Q61L) (setting [4]), on wild-type K-Ras (setting [4]), on K-Ras(G12V) (setting [4]) and at K-Ras(G13D) (setting [4]) was “greatly weakened” throughout. Besides, the “binding activity under the reducing condition” value is listed as “greatly weakened” at wild-type N-Ras (setting [4]); “greatly weakened” on wild-type H-Ras (setting [4]); “greatly weakened” on N-Ras (Q61K) (setting [4]); “greatly weakened” on K-Ras(G12D) [2] (K-Ras(G12D), bond between positions 4 and 11 cleaved, monocyclic).

B1: 2d-8-Trp (peptide)
peptide: RRRRCPLWISYDPVCRRRR
HELM: PEPTIDE1{[ac].R.R.R.R.C.P.L.W.I.S.Y.D.P.V.C.R.R.R.R.[am]}$PEPTIDE1,PEPTIDE1,6:R3-16:R3$$$V2.0
SMILES: CC[C@H](C)[C@@H]1NC(=O)[C@H](Cc2c[nH]c3ccccc23)NC(=O)[C@H](CC(C)C)NC(=O)[C@@H]2CCCN2C(=O)[C@@H](NC(=O)[C@H](CCCNC(=N)N)NC(=O)[C@H](CCCNC(=N)N)NC(=O)[C@H](CCCNC(=N)N)NC(=O)[C@H](CCCNC(=N)N)NC(C)=O)CSSC[C@@H](C(=O)N[C@@H](CCCNC(=N)N)C(=O)N[C@@H](CCCNC(=N)N)C(=O)N[C@@H](CCCNC(=N)N)C(=O)N[C@@H](CCCNC(=N)N)C(N)=O)NC(=O)[C@H](C(C)C)NC(=O)[C@@H]2CCCN2C(=O)[C@H](CC(=O)O)NC(=O)[C@H](Cc2ccc(O)cc2)NC(=O)[C@H](CO)NC1=O
Consider B1, for which, in the data set with K-Ras(G12D) [3], the “Binding intensity (fold vs KRpep-2d)” value was determined as 2.6 fold.

B2: 2d-14-Trp (peptide)
peptide: RRRRCPLYISYDPWCRRRR
HELM: PEPTIDE1{[ac].R.R.R.R.C.P.L.Y.I.S.Y.D.P.W.C.R.R.R.R.[am]}$PEPTIDE1,PEPTIDE1,6:R3-16:R3$$$V2.0
SMILES: CC[C@H](C)[C@@H]1NC(=O)[C@H](Cc2ccc(O)cc2)NC(=O)[C@H](CC(C)C)NC(=O)[C@@H]2CCCN2C(=O)[C@@H](NC(=O)[C@H](CCCNC(=N)N)NC(=O)[C@H](CCCNC(=N)N)NC(=O)[C@H](CCCNC(=N)N)NC(=O)[C@H](CCCNC(=N)N)NC(C)=O)CSSC[C@@H](C(=O)N[C@@H](CCCNC(=N)N)C(=O)N[C@@H](CCCNC(=N)N)C(=O)N[C@@H](CCCNC(=N)N)C(=O)N[C@@H](CCCNC(=N)N)C(N)=O)NC(=O)[C@H](Cc2c[nH]c3ccccc23)NC(=O)[C@@H]2CCCN2C(=O)[C@H](CC(=O)O)NC(=O)[C@H](Cc2ccc(O)cc2)NC(=O)[C@H](CO)NC1=O
B2: the “Binding intensity (fold vs KRpep-2d)” value with K-Ras(G12D) [3] turned out to be 3.4 fold.

B3: 2d-10-Thr (peptide)
peptide: RRRRCPLYITYDPVCRRRR
HELM: PEPTIDE1{[ac].R.R.R.R.C.P.L.Y.I.T.Y.D.P.V.C.R.R.R.R.[am]}$PEPTIDE1,PEPTIDE1,6:R3-16:R3$$$V2.0
SMILES: CC[C@H](C)[C@@H]1NC(=O)[C@H](Cc2ccc(O)cc2)NC(=O)[C@H](CC(C)C)NC(=O)[C@@H]2CCCN2C(=O)[C@@H](NC(=O)[C@H](CCCNC(=N)N)NC(=O)[C@H](CCCNC(=N)N)NC(=O)[C@H](CCCNC(=N)N)NC(=O)[C@H](CCCNC(=N)N)NC(C)=O)CSSC[C@@H](C(=O)N[C@@H](CCCNC(=N)N)C(=O)N[C@@H](CCCNC(=N)N)C(=O)N[C@@H](CCCNC(=N)N)C(=O)N[C@@H](CCCNC(=N)N)C(N)=O)NC(=O)[C@H](C(C)C)NC(=O)[C@@H]2CCCN2C(=O)[C@H](CC(=O)O)NC(=O)[C@H](Cc2ccc(O)cc2)NC(=O)[C@H]([C@@H](C)O)NC1=O
As to B3, in the data set with K-Ras(G12D) [3], the “Binding intensity (fold vs KRpep-2d)” value came to 0.9 fold.
